{"source": "patent US12240811B2", "about": "“N-heterocyclic five-membered ring-containing capsid protein assembly inhibitor, pharmaceutical composition and uses thereof” (CHIA TAI TIANQING PHARMACEUTICAL GROUP CO., LTD., priority 2019, dated 2025)", "key": {"HBV DNA in serum": {"tested_on": "HBV DNA in serum", "test": "pAAV/HBV mouse model", "format": "in vivo, C57BL/6 mice", "conditions": "3 mpk intragastric once daily", "description": "6-8 week old male C57BL/6 mice (Shanghai Lingchang Biotechnology Co., Ltd.) were used, and each mouse was injected with purified recombinant plasmid pAAV/HBV1.2 ([…]) dissolved in PBS equivalent to a volume of about 10% of its body weight through the tail vein within 3-8 s. Blood was collected from the orbits of the mice at 3 days after the plasmid injection to detect serum HBV DNA. The model mice having uniform serum DNA were selected and divided into: a model control group, a vehicle control group, and a test substance group. Mice in each group were continuously administered intragastrically once daily for 10 days at a dose of 3 mg/kg. The mouse serum was taken on day 0, 4, 7, and 10 after the administration, and the mice were sacrificed on day 10 to take liver tissue samples. The HBV DNA copy numbers in serum and liver of the mice were detected by fluorescent quantitative PCR method."}, "[1]": {"test": "Stability of liver microsomes in vitro, rat", "format": "in vitro ADME", "description": "(§1) 300 μL of a final incubation system contains 30 μL of liver microsomes (protein concentration: 0.15 mg/mL, Corning), 30 μL NADPH+MgCl2, 3 μL substrate (formulated with acetonitrile), and 237 μL PBS buffer. Duplicate incubation systems of 0.3 mL each were formulated for each species. A total volume of 270 μL of a uniformly mixed solution of the substrate and the enzyme was formulated in each tube, the solution and NADPH were pre-incubated at 37° C. for 5 minutes, respectively. Then 30 μL of the mixed solution of NADPH+MgCl2 was added for reaction. 50 μL of the reaction solution was taken out at 0, 10, 30, and 60 mins, and the reaction was terminated with 300 μL of ice acetonitrile containing an internal standard.\n(§2) Sample pre-treatment: To 50 μL of the incubated sample was added 300 μL of ice acetonitrile containing diazepam as an internal standard and then precipitated. After vortexing for 5 minutes, the sample was centrifugated (12000 rpm, 4° C.) for 10 minutes. 75 μL of the supernatant was pipetted into a 96-well plate, and then diluted with 75 μL ultrapure water and mixed uniformly. 0.5 μL of the resulting solution was injected and analyzed by LC-MS/MS."}, "[2]": {"test": "Stability of liver microsomes in vitro, human", "format": "in vitro ADME", "description": "as §1, §2"}, "[3]": {"tested_on": "HBV DNA in HepG2.2.15 cells", "test": "In vitro cell HBV DNA inhibitory activity in HepG2.2.15 cells", "format": "cell-based", "conditions": "Hepatitis B virus, 144 h, 6 days treatment, intracellular capsid HBV DNA by qPCR, read-out: EC50, anti-HBV activity in HepG2.2.15 cells", "description": "A bottle of HepG2.2.15 (Wuhan Institute of Virology) or HepAD38 cells in good exponential growth state was taken, washed once by adding 5 mL PBS, and then thereto was added 3 mL trypsin. After digesting at room temperature for 5 min, 2 mL trypsin was discarded, and then the sample was placed in a cell culture incubator and digested for 10 min. The cells were taken out and observed under a microscope (whether the cells were individually round and there was no adhesion between the cells). 10 mL complete medium was added to terminate the digestion. After pipetting into a single cell suspension, 10 μL of the cell suspension was taken out for cell counting with a cell counter, and then diluted with a complete medium and adjusted to a cell density of 1*10^5 cells/mL. […]\nCompounds dissolved in DMSO were subjected to two-fold gradient dilution (10 concentrations in total) with complete medium. […] After lysing at room temperature for 10 min, DNA was extracted, and HBV DNA in the intracellular viral capsid was measured by real-time fluorescence quantitative PCR. The inhibition rate was calculated based on the Ct value, and the EC50 value was calculated by the four-parameter method."}, "[4]": {"test": "Stability of liver microsomes in vitro, mouse", "format": "in vitro ADME", "description": "as §1, §2"}}, "data": [{"compound": "Cc1[nH]c(C(=O)C(=O)N[C@H](C)C(F)(F)F)c(C)c1C(=O)Nc1ccc(F)c(C#N)c1", "note": "[Example 2, (R)—N-(3-cyano-4-fluorophenyl)-2,4-dimethyl-5-(2-oxo-2-((1,1,1-trifluoroprop-2-yl)amino)acetyl)-1H-pyrrole-3-carboxamide]", "values": [{"measurement": "Reduction levels (log10) of HBV DNA in serum, Day 4", "setting": "HBV DNA in serum; Day 4", "value": 2.92, "unit": "log10"}, {"measurement": "Reduction levels (log10) of HBV DNA in serum, Day 7", "setting": "HBV DNA in serum; Day 7", "value": 4.09, "unit": "log10"}, {"measurement": "Reduction levels (log10) of HBV DNA in serum, Day 10", "setting": "HBV DNA in serum; Day 10", "value": 2.42, "unit": "log10"}, {"measurement": "Remaining (%) of rat liver microsomes at 60 min", "setting": "[1]", "value": 99, "unit": "%"}, {"measurement": "Remaining (%) of human liver microsomes at 60 min", "setting": "[2]", "value": 100, "unit": "%"}, {"measurement": "EC50", "setting": "[3]", "value": 10.7, "unit": "nM"}, {"measurement": "Remaining (%) of mouse liver microsomes at 60 min", "setting": "[4]", "value": 100, "unit": "%"}]}]}
